From US8168220B2, “Dosage forms of active ingredients containing hydroxystilbene for treating menopausal complaints” (priority 2005, dated 2012)
Entries after “also recorded” stand apart in the source; their conditions may differ.

Assays:
[1] = Dissolving tests with ERr 731 in ethanol and glycerol; assay type: physicochemical
Protocol: a) Dissolving Tests with ERr 731® in Ethanol and Glycerol:
Test A: 200 mg of dry extract in 50 ml of glycerol R:
Test B: 200 mg of dry extract in 50 ml of ethanol 30% R:
Test C: 200 mg of dry extract in 50 ml of ethanol 50% R:
Test D: 200 mg of dry extract in 50 ml of ethanol 86% R: […]

[2] = Pharmacokinetics of ERr 731 ingredients in a subject (plasma LC-MS/MS); assay type: in vivo, human; conditions: 40 mg ERr 731 orally (10 tablets)
Protocol: Subsequently, 10 ml of blood was taken at various times (as indicated in FIG. 1) and the plasma was obtained by centrifugation.
These plasma samples were processed as follows: 500 μl of plasma were mixed with 25 μl of an internal standard working solution (2.5 ng/μl rhaponticin or rhapontigenin in methanol) and then mixed with 500 μl of isotonic NaCl solution and 2.5 ml of diethyl ether/butanol (9/1; v/v). After shaking and centrifugation (10 minutes at 4600 rpm), about 2 ml of the supernatant were removed and dried under a stream of nitrogen (at 60° C.). The pellet was taken up in 50 μl of methanol. Addition of 200 μl of distilled water was followed by renewed mixing, and 200 μl were pipetted into autosampler tubes (light-protected). 30 μl of the samples were injected for analysis into an LC-MS/MS system (PE Sciex API 3000). Chromatographic separation of the analytes took place on a Phenomenex Polymer X column with a gradient of an ammonium buffer solution and an acetonitrile/methanol mixture as mobile phase.

[3] = pH-dependent solubility of rhaponticin in aqueous solutions; assay type: physicochemical; conditions: acidic pH range (pH 3.4-3.6)
Description: Use is made of this for its isolation. Since, besides other organic acids, the root in particular has a high content of oxalic acid (⅔ in water-soluble and ⅓ in bound form), this must be neutralized during the isolation in order to prevent the pH drifting into the acidic range and thus to inhibit premature precipitation of the rhaponticin. This is achieved by using calcium oxide. The latter is employed as quicklime solution with a pH of 12.4-12.6.

[4] = biological target: T1, estrogen receptor β (ERβ) (Homo sapiens, UniProt Q92731); assay: ERβ/mC3-luciferase transactivation in HEC-1B cells; assay type: cell-based; conditions: 24 hours incubation, FIG. 5
T1 construct: expressed in transfected cells; host or cells: HEC-1B cells (human endometrial adenocarcinoma; no endogenous ERα or ERβ), transient transfection with DOTAP
T1 sequence (Q92731 whole entry): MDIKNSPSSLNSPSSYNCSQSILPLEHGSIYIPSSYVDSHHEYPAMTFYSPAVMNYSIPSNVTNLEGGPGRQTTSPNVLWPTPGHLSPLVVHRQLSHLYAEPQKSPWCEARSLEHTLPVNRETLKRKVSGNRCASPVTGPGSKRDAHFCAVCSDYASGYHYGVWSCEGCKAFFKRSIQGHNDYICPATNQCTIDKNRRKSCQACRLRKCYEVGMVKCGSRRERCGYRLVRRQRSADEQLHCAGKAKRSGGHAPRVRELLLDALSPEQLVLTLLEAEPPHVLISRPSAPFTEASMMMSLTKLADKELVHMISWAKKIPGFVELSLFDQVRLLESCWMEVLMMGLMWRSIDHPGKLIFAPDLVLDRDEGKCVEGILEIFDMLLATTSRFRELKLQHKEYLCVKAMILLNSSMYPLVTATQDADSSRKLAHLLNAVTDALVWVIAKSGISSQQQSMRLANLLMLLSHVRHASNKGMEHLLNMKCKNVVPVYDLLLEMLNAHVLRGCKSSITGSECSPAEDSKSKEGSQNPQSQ
Description: They therefore represent a possible way of investigating, in a human and endometrial context, ligand-dependent effects of substances on the transactivation mechanisms in relation to different receptor subtypes and different estrogen-responsive promoters.
An established ERβ/mC3-luciferase system was employed. For this purpose, HEC-1B cells were applied in 24-well plates with a density of 95 000 cells/well (in Dulbecco's modified Essential Medium (DMEM/F12)). The next day, they were cotransfected with an ERβ-containing construct (hERβ/pSG2) and a triple-ERE-containing promoter/luciferase construct (mC3-Luc/pGL2) (Hillisch et al. Dissecting physiological roles of estrogen receptor alpha and beta with potent selective ligands from structure-based design. Mol Endocrinol. 2004 July; 18:1599-609). The transient transfection took place using DOTAP (N-[1-(2,3-dioleoyloxy)]-N,N,N-trimethylammoniumpropane methyl-sulfate, Roth) as described by the manufacturer.
After 24 hours, the cells were treated with appropriate concentrations of the substances or substance mixtures to be investigated. […] The incubation time was 24 hours. The cells were then lysed. The Luciferase Assay® kit (Promega) was used to determine the luciferase activity on the one hand, and the BCA® kit (Sigma) was used to determine the protein content on the other hand. […]

[5] = Test A: 200 mg of dry extract in 50 ml of glycerol R
[6] = Test B: 200 mg of dry extract in 50 ml of ethanol 30% R
[7] = Test C: 200 mg of dry extract in 50 ml of ethanol 50% R
[8] = Test D: 200 mg of dry extract in 50 ml of ethanol 86% R

content dissolved [1, 5] | content dissolved relative to theory [1, 5] | content dissolved [1, 6] | content dissolved relative to theory [1, 6] | content dissolved [1, 7] | content dissolved relative to theory [1, 7] | content dissolved [1, 8] | content dissolved relative to theory [1, 8] | detection in the blood [2] | time of maximum in the blood [2] | solubility in aqueous solutions [3] | SMILES | activation of ERβ (relative luciferase activity vs DMSO control) [4]
27.1% deoxyrhaponticin | (90.6% of theory) | 25.2% deoxyrhaponticin | (84.2% of theory) | 29.0% deoxyrhaponticin | (97.0% of theory) | 29.5% deoxyrhaponticin | (98.7% of theory) |  |  |  | COc1ccc(C=Cc2cc(O)cc(O[C@@H]3O[C@H](CO)[C@@H](O)[C@H](O)[C@H]3O)c2)cc1 [deoxyrhaponticin] | 
55.1% rhaponticin | (89.0% of theory) | 52.2% rhaponticin | (84.3% of theory) | 58.8% rhaponticin | (95.0% of theory) | 59.8% rhaponticin | (96.6% of theory) | detected in the blood | 3 to 4 h | precipitated as yellowish substance | COc1ccc(C=Cc2cc(O)cc(O[C@@H]3O[C@H](CO)[C@@H](O)[C@H](O)[C@H]3O)c2)cc1O [rhaponticin, 3,3′,5-Trihydroxy-4′-methoxystilbene 3-O-β-D-glucopyranoside] | 
 |  |  |  |  |  |  |  |  |  |  | COc1ccc(C=Cc2cccc(O)c2)cc1O [deoxyrhapontigenin, 3′,5-Dihydroxy-4′-methoxystilbene] | activate the ERβ dose-dependently; also recorded: effective only at higher concentrations
